Tested on: 931267-113-T-J1-PDC multicell spheroid viability
Test: Anticancer human tumor 931267-113-T-J1-PDC patient-derived colon adenocarcinoma cell line growth inhibition [PI3K]
Details: for IC50: curve of first compound; for viability, T/C: stronger effect = lower value
In short: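 High-throughput combination screen: PI3K inhibitors crossed with targeted small molecules on complex spheroids of tumor cells, HUVEC and MSCs at 37 degrees C, 5% CO2. Top concentration was at or near clinical Cmax (otherwise 10 microM), with half-log decrements.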

[1] = second compound 0.0316 µM, first compound 0.000316 µM
[2] = second compound 0.0316 µM, first compound 0.001 µM
[3] = second compound 0.0316 µM, first compound 0.00316 µM
[4] = second compound 0.0316 µM, first compound 0.01 µM
[5] = second compound 0.0316 µM, first compound 0.0316 µM
[6] = second compound 0.0316 µM, first compound 0.1 µM
[7] = second compound 0.1 µM, first compound 0.000316 µM
[8] = second compound 0.1 µM, first compound 0.001 µM
[9] = second compound 0.1 µM, first compound 0.00316 µM
[10] = second compound 0.1 µM, first compound 0.01 µM
[11] = second compound 0.1 µM, first compound 0.0316 µM
[12] = second compound 0.1 µM, first compound 0.1 µM
[13] = second compound 0.316 µM, first compound 0.000316 µM
[14] = second compound 0.316 µM, first compound 0.001 µM
[15] = second compound 0.316 µM, first compound 0.00316 µM
[16] = second compound 0.316 µM, first compound 0.01 µM
[17] = second compound 0.316 µM, first compound 0.0316 µM
[18] = second compound 0.316 µM, first compound 0.1 µM
[19] = second compound 1 µM, first compound 0.000316 µM
[20] = second compound 1 µM, first compound 0.001 µM
[21] = second compound 1 µM, first compound 0.00316 µM
[22] = second compound 1 µM, first compound 0.01 µM
[23] = second compound 1 µM, first compound 0.0316 µM
[24] = second compound 1 µM, first compound 0.1 µM
[25] = second compound 3.16 µM, first compound 0.000316 µM
[26] = second compound 3.16 µM, first compound 0.001 µM
[27] = second compound 3.16 µM, first compound 0.00316 µM
[28] = second compound 3.16 µM, first compound 0.01 µM
[29] = second compound 3.16 µM, first compound 0.0316 µM
[30] = second compound 3.16 µM, first compound 0.1 µM
[31] = second compound 10 µM, first compound 0.000316 µM
[32] = second compound 10 µM, first compound 0.001 µM
[33] = second compound 10 µM, first compound 0.00316 µM
[34] = second compound 10 µM, first compound 0.01 µM
[35] = second compound 10 µM, first compound 0.0316 µM
[36] = second compound 10 µM, first compound 0.1 µM
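Also: viability read 7 days after compound addition.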

In the case of `CC(=O)c1c(C)c2cnc(Nc3ccc(N4CCNCC4)cn3)nc2n(C2CCCC2)c1=O` + CC(Nc1ncnc2nc[nH]c12)c1cc2cccc(Cl)c2c(=O)n1-c1ccccc1, the IC50 (second compound 0.0316 µM) is reported as over 100 nM, the IC50 (second compound 0.1 µM) is reported as over 100 nM and the IC50 (second compound 0.316 µM) is reported as over 100 nM. The IC50 (second compound 1 µM) was over 100 nM, the IC50 (second compound 3.16 µM) was over 100 nM and the IC50 (second compound 10 µM) was over 100 nM. For the same compound, the viability, T/C [1] was 115%, the viability, T/C [2] was 99% and the viability, T/C [3] was 96.5%. The viability, T/C [4] was 101%, the viability, T/C [5] was 120% and the viability, T/C [6] was 114%. For the same compound, the viability, T/C [7] was 106%, the viability, T/C [8] was 104% and the viability, T/C [9] was 110%. The viability, T/C [10] was 99.5%, the viability, T/C [11] was 110% and the viability, T/C [12] was 103%. It also gave a viability, T/C [13] of 109%, a viability, T/C [14] of 105% and a viability, T/C [15] of 98.1%. The viability, T/C [16] was 111%, the viability, T/C [17] was 108% and the viability, T/C [18] was 94.6%. The viability, T/C [19] was 104%, the viability, T/C [20] was 105% and the viability, T/C [21] was 104%. For the same compound, the viability, T/C [22] was 114%, the viability, T/C [23] was 99% and the viability, T/C [24] was 102%. The viability, T/C [25] was 106%, the viability, T/C [26] was 95.7% and the viability, T/C [27] was 90.7%. For the same compound, the viability, T/C [28] was 98%, the viability, T/C [29] was 103% and the viability, T/C [30] was 96.1%. It also gave a viability, T/C [31] of 97.3%, a viability, T/C [32] of 94.9% and a viability, T/C [33] of 98%. For the same compound, the viability, T/C [34] was 93.3%, the viability, T/C [35] was 94.7% and the viability, T/C [36] was 84.3%.

`CC(C)n1nc(-c2ccc3oc(N)nc3c2)c2c(N)ncnc21` + CC(Nc1ncnc2nc[nH]c12)c1cc2cccc(Cl)c2c(=O)n1-c1ccccc1 was tested, and the IC50 (second compound 0.0316 µM) was over 100 nM, the IC50 (second compound 0.1 µM) was over 100 nM and the IC50 (second compound 0.316 µM) was over 100 nM. For the same compound, the IC50 (second compound 1 µM) was over 100 nM, the IC50 (second compound 3.16 µM) was over 100 nM and the IC50 (second compound 10 µM) was over 100 nM. For the same compound, the viability, T/C [1] was 101%, the viability, T/C [2] was 103% and the viability, T/C [3] was 97.8%. For the same compound, the viability, T/C [4] was 88.7%, the viability, T/C [5] was 92.6% and the viability, T/C [6] was 51.7%. For the same compound, the viability, T/C [7] was 106%, the viability, T/C [8] was 104% and the viability, T/C [9] was 92.7%. For the same compound, the viability, T/C [10] was 89.5%, the viability, T/C [11] was 79.8% and the viability, T/C [12] was 55.8%. It also gave a viability, T/C [13] of 113%, a viability, T/C [14] of 105% and a viability, T/C [15] of 93%. It also gave a viability, T/C [16] of 94.2%, a viability, T/C [17] of 86.5% and a viability, T/C [18] of 54.1%. The viability, T/C [19] was 95.6%, the viability, T/C [20] was 98% and the viability, T/C [21] was 91%. For the same compound, the viability, T/C [22] was 92.2%, the viability, T/C [23] was 87.5% and the viability, T/C [24] was 57%. It also gave a viability, T/C [25] of 93.8%, a viability, T/C [26] of 95% and a viability, T/C [27] of 88.4%. The viability, T/C [28] was 88.8%, the viability, T/C [29] was 81.8% and the viability, T/C [30] was 52.5%. For the same compound, the viability, T/C [31] was 87.5%, the viability, T/C [32] was 83.9% and the viability, T/C [33] was 91.6%. For the same compound, the viability, T/C [34] was 84.3%, the viability, T/C [35] was 74.8% and the viability, T/C [36] was 58.9%.
